The subject of assay [1] is antibodies in sera from SARS patients (sera 1a, 1b, 2, 6, 37, 62, London, SARS-yellow, SARS-green). The assay is classed as binding, human. The arrangement: Binding of serum 6 to linear peptides of protein X1 of SARS-CoV Urbani / Binding of serum 37 to linear peptides of protein X1 of SARS-CoV Urbani / Binding of serum 6 to looped/cyclic peptide (PEPSCAN-ELISA) / Binding of serum 37 to looped/cyclic peptide (PEPSCAN-ELISA) / Binding of serum 37 to looped/cyclic peptides of protein X1 of SARS-CoV Urbani / Binding of serum 6 to linear peptides of protein X2 / Binding of serum 37 to linear peptides of protein X2 / Binding of serum 37 to looped/cyclic peptides of protein X2 of SARS-CoV Urbani / Binding of serum 6 to linear peptides of protein M of SARS-CoV Urbani / Binding of serum 37 to linear peptides of protein M of SARS-CoV Urbani / Binding of serum 6 to looped/cyclic peptides of protein M of SARS-CoV Urbani / Binding of serum 37 to looped/cyclic peptides of protein M of SARS-CoV Urbani / Binding of serum 6 to linear peptides of protein X3 of SARS-CoV Urbani / Binding of serum 37 to linear peptides of protein X3 of SARS-CoV Urbani / Binding of serum 37 to looped/cyclic peptides of protein X3 of SARS-CoV Urbani / Binding of serum 6 to linear peptides of protein X4 of SARS-CoV Urbani / Binding of serum 37 to linear peptides of protein X4 of SARS-CoV Urbani / Binding of serum 37 to looped/cyclic peptides of protein X4 of SARS-CoV Urbani / Binding of serum 6 to linear peptides of protein X5 of SARS-CoV Urbani / Binding of serum 37 to linear peptides of protein X5 of SARS-CoV Urbani / Binding of serum 37 to looped/cyclic peptides of protein X5 of SARS-CoV Urbani / Binding of serum 6 to linear peptides of protein N of SARS-CoV Urbani / Binding of serum 37 to linear peptides of protein N of SARS-CoV Urbani / Binding of serum 6 to linear peptide (PEPSCAN-ELISA) / Binding of serum 1a to looped/cyclic peptides of protein N of SARS-CoV Urbani / Binding of serum 1b to looped/cyclic peptides of protein N of SARS-CoV Urbani / Binding of serum 2 to looped/cyclic peptides of protein N of SARS-CoV Urbani / Binding of serum 6 to looped/cyclic peptides of protein N of SARS-CoV Urbani / Binding of serum 37 to looped/cyclic peptides of protein N of SARS-CoV Urbani / Binding of serum 62 to looped/cyclic peptides of protein N of SARS-CoV Urbani / Binding of serum London to looped/cyclic peptides of protein N of SARS-CoV Urbani / Binding of serum SARS-green to looped/cyclic peptides of protein N of SARS-CoV Urbani: unit not given here.

For assay [2], the system named is control sera (pooled serum of ten healthy LUMC hospital workers; commercial negative donor pooled serum from the Dutch bloodbank). The assay is classed as binding, human. The arrangement: Binding of Control serum LUMC to linear peptides / Binding of Control serum Blood-bank to linear peptides / Binding of Control serum LUMC to looped peptides / Binding of Control Serum Blood-Bank to Looped peptides / Binding of Control serum LUMC to linear peptides of the protein M of SARS-CoV Urbani / Binding of Control serum Blood-bank to linear peptides of the protein M of SARS-CoV Urbani / Binding of Control serum LUMC to looped peptides of the protein M of SARS-CoV Urbani / Binding of Control Serum Blood-Bank to Looped peptides of the protein M of SARS-CoV Urbani: unit not given here.

Assay [3] deals with rabbit serum obtained by immunizing a rabbit with the SARS-CoV strain Frankfurt 1. The assay is classed as binding. The arrangement: Binding of a rabbit serum to linear peptides / Binding of a rabbit serum to looped peptides / Rabbit serum linear peptides / Rabbit serum looped peptides / Binding of a rabbit serum to linear peptides of protein N of SARS-CoV Urbani (Rabbit serum linear peptides) / Binding of a rabbit serum to looped/cyclic peptides of protein N of SARS-CoV Urbani (Rabbit serum looped peptides): unit not given here.

Take LLWPVTLACFVLAAV: in assay [1], the “Binding of serum 1a to linear peptides of protein M of SARS-CoV Urbani” value was found to be 0.7, the “Binding of serum 1a to looped/cyclic peptides of protein M of SARS-CoV Urbani” value amounted to 0.9, the “Binding of serum 1b to linear peptides of protein M of SARS-CoV Urbani” value turned out to be 0.5 and the “Binding of serum 1b to looped/cyclic peptides of protein M of SARS-CoV Urbani” value came to 0.5. Also, in assay [1], the “Binding of serum 2 to linear peptides of protein M of SARS-CoV Urbani” value stood at 0.6, the “Binding of serum 2 to looped/cyclic peptides of protein M of SARS-CoV Urbani” value is on record as 0.9, the “Binding of serum 6 to linear peptides of protein M of SARS-CoV Urbani” value was 0.4 and the “Binding of serum 6 to looped/cyclic peptides of protein M of SARS-CoV Urbani” value amounted to 0.6. In assay [1], the “Binding of serum 37 to linear peptides of protein M of SARS-CoV Urbani” value came out at 0.5, the “Binding of serum 37 to looped/cyclic peptides of protein M of SARS-CoV Urbani” value turned out to be 0.8, the “Binding of serum 62 to linear peptides of protein M of SARS-CoV Urbani” value was found to be 0.5 and the “Binding of serum 62 to looped/cyclic peptides of protein M of SARS-CoV Urbani” value is recorded as 0.8. Also, in assay [1], the “Binding of serum London to linear peptides of protein M of SARS-CoV Urbani” value was 0.3, the “Binding of serum London to looped/cyclic peptides of protein M of SARS-CoV Urbani” value turned out to be 0.3, the “Binding of serum SARS-green to linear peptides of protein M of SARS-CoV Urbani” value was 0.5 and the “Binding of serum SARS-green to looped/cyclic peptides of protein M of SARS-CoV Urbani” value is 0.4. Moreover, in assay [1], the “Binding of serum SARS-yellow to linear peptides of protein M of SARS-CoV Urbani” value came out at 0.1 and the “Binding of serum SARS-yellow to looped/cyclic peptides of protein M of SARS-CoV Urbani” value is listed as 0.9. In assay [2], the “Binding of Control Serum Blood-Bank to Looped peptides of the protein M of SARS-CoV Urbani” value amounted to 0.6, the “Binding of Control serum Blood-bank to linear peptides of the protein M of SARS-CoV Urbani” value amounted to 0.7, the “Binding of Control serum LUMC to linear peptides of the protein M of SARS-CoV Urbani” value is on record as 0.7 and the “Binding of Control serum LUMC to looped peptides of the protein M of SARS-CoV Urbani” value turned out to be 0.7. Besides, in assay [3], the “Rabbit serum linear peptides” value is 0.2 and the “Rabbit serum looped peptides” value is given as 0.3.
Consider LLYDANYFVCWHTHN, for which, in assay [1], the “Binding of serum 1a to linear peptides of protein X1 of SARS-CoV Urbani” value is 0.9, the “Binding of serum 1a to looped/cyclic peptide (PEPSCAN-ELISA)” value is given as 0.6, the “Binding of serum 1b to linear peptides of protein X1 of SARS-CoV Urbani” value was determined as 0.7 and the “Binding of serum 1b to looped/cyclic peptide (PEPSCAN-ELISA)” value is on record as 0.5. Moreover, in assay [1], the “Binding of serum 2 to linear peptides of protein X1 of SARS-CoV Urbani” value stood at 0.6, the “Binding of serum 2 to looped/cyclic peptide (PEPSCAN-ELISA)” value was found to be 0.4, the “Binding of serum 6 to linear peptides of protein X1 of SARS-CoV Urbani” value is listed as 0.7 and the “Binding of serum 6 to looped/cyclic peptide (PEPSCAN-ELISA)” value worked out at 0.4. Moreover, in assay [1], the “Binding of serum 37 to linear peptides of protein X1 of SARS-CoV Urbani” value came to 0.7, the “Binding of serum 37 to looped/cyclic peptide (PEPSCAN-ELISA)” value is 0.6, the “Binding of serum 62 to linear peptides of protein X1 of SARS-CoV Urbani” value worked out at 0.8 and the “Binding of serum 62 to looped/cyclic peptide (PEPSCAN-ELISA)” value is on record as 0.6. In assay [1], the “Binding of serum London to linear peptides of protein X1 of SARS-CoV Urbani” value was found to be 0.4, the “Binding of serum London to looped/cyclic peptide (PEPSCAN-ELISA)” value is on record as 0.2, the “Binding of serum SARS-green to linear peptides of protein X1 of SARS-CoV Urbani” value was determined as 0.4 and the “Binding of serum SARS-green to looped/cyclic peptide (PEPSCAN-ELISA)” value is given as 0.3. In addition, in assay [1], the “Binding of serum SARS-yellow to linear peptides of protein X1 of SARS-CoV Urbani” value was 0.5 and the “Binding of serum SARS-yellow to looped/cyclic peptide (PEPSCAN-ELISA)” value stood at 0.4. Also, in assay [2], the “Binding of Control Serum Blood-Bank to Looped peptides” value came to 0.6, the “Binding of Control serum Blood-bank to linear peptides” value is listed as 0.8, the “Binding of Control serum LUMC to linear peptides” value came to 0.7 and the “Binding of Control serum LUMC to looped peptides” value is given as 0.5. In addition, in assay [3], the “Binding of a rabbit serum to linear peptides” value is 0.1 and the “Binding of a rabbit serum to looped peptides” value came to 0.5.
Regarding LMESELVIGAVIIRG, in assay [1], the “Binding of serum 1a to linear peptides of protein M of SARS-CoV Urbani” value turned out to be 0.7, the “Binding of serum 1a to looped/cyclic peptides of protein M of SARS-CoV Urbani” value is 0.6, the “Binding of serum 1b to linear peptides of protein M of SARS-CoV Urbani” value came to 0.5 and the “Binding of serum 1b to looped/cyclic peptides of protein M of SARS-CoV Urbani” value is 0.6. In assay [1], the “Binding of serum 2 to linear peptides of protein M of SARS-CoV Urbani” value was 0.7, the “Binding of serum 2 to looped/cyclic peptides of protein M of SARS-CoV Urbani” value amounted to 0.5, the “Binding of serum 6 to linear peptides of protein M of SARS-CoV Urbani” value amounted to 0.3 and the “Binding of serum 6 to looped/cyclic peptides of protein M of SARS-CoV Urbani” value worked out at 0.4. In addition, in assay [1], the “Binding of serum 37 to linear peptides of protein M of SARS-CoV Urbani” value is 0.9, the “Binding of serum 37 to looped/cyclic peptides of protein M of SARS-CoV Urbani” value is reported as 0.6, the “Binding of serum 62 to linear peptides of protein M of SARS-CoV Urbani” value is on record as 0.8 and the “Binding of serum 62 to looped/cyclic peptides of protein M of SARS-CoV Urbani” value is 0.6. Further, in assay [1], the “Binding of serum London to linear peptides of protein M of SARS-CoV Urbani” value came to 0.3, the “Binding of serum London to looped/cyclic peptides of protein M of SARS-CoV Urbani” value was 0.2, the “Binding of serum SARS-green to linear peptides of protein M of SARS-CoV Urbani” value is 0.3 and the “Binding of serum SARS-green to looped/cyclic peptides of protein M of SARS-CoV Urbani” value is reported as 0.3. Also, in assay [1], the “Binding of serum SARS-yellow to linear peptides of protein M of SARS-CoV Urbani” value is reported as 0.1 and the “Binding of serum SARS-yellow to looped/cyclic peptides of protein M of SARS-CoV Urbani” value is given as 0.5. For the same sequence, in assay [2], the “Binding of Control Serum Blood-Bank to Looped peptides of the protein M of SARS-CoV Urbani” value was 0.7, the “Binding of Control serum Blood-bank to linear peptides of the protein M of SARS-CoV Urbani” value worked out at 0.8, the “Binding of Control serum LUMC to linear peptides of the protein M of SARS-CoV Urbani” value is 0.5 and the “Binding of Control serum LUMC to looped peptides of the protein M of SARS-CoV Urbani” value was 0.6. In addition, in assay [3], the “Rabbit serum linear peptides” value is 0.4 and the “Rabbit serum looped peptides” value was determined as 0.2.
For LMWLSYFVASFRLFA, in assay [1], the “Binding of serum 1a to linear peptides of protein M of SARS-CoV Urbani” value turned out to be 0.6, the “Binding of serum 1b to linear peptides of protein M of SARS-CoV Urbani” value worked out at 0.4, the “Binding of serum 2 to linear peptides of protein M of SARS-CoV Urbani” value is reported as 0.4 and the “Binding of serum 6 to linear peptides of protein M of SARS-CoV Urbani” value is listed as 0.3. Further, in assay [1], the “Binding of serum 37 to linear peptides of protein M of SARS-CoV Urbani” value was 0.3, the “Binding of serum 62 to linear peptides of protein M of SARS-CoV Urbani” value was found to be 0.4, the “Binding of serum London to linear peptides of protein M of SARS-CoV Urbani” value came to 0.3 and the “Binding of serum SARS-green to linear peptides of protein M of SARS-CoV Urbani” value was 0.5. In addition, in assay [1], the “Binding of serum SARS-yellow to linear peptides of protein M of SARS-CoV Urbani” value is recorded as 0.1; the “Recognition of the peptide by sera of SARS-CoV infected individuals, and form (linear, looped/cyclic) in which it is recognized” value is “recognized in looped/cyclic form”. Further, in assay [2], the “Binding of Control Serum Blood-Bank to Looped peptides of the protein M of SARS-CoV Urbani” value amounted to 0.6, the “Binding of Control serum Blood-bank to linear peptides of the protein M of SARS-CoV Urbani” value worked out at 0.5, the “Binding of Control serum LUMC to linear peptides of the protein M of SARS-CoV Urbani” value turned out to be 0.4 and the “Binding of Control serum LUMC to looped peptides of the protein M of SARS-CoV Urbani” value was 0.6. Also, in assay [3], the “Rabbit serum linear peptides” value is given as 0.0 and the “Rabbit serum looped peptides” value is on record as 0.3.

The record behind these values is patent US20070128217A1 (priority 2003, published 2007).
